Values quoted from earlier work, collected in patent publication US6339063B1, “9a-azalides as veterinary antimicrobial agents” (Merck & Co., Inc., priority 1997, dated 2002).

Test system: Pasteurella multocida
Details: as said in U.S. Pat. Nos. 4,474,768, 4,464,527 and 4,526,889

Structure (SMILES)	activity against Pasteurella multocida in vitro
CCC1OC(=O)C(C)C(OC2CC(C)(OC)C(O)C(C)O2)C(C)C(OC2OC(C)CC(N(C)C)C2O)C(C)(O)CC(C)CN(C)C(C)C(O)C1(C)O (stereo not drawn) [4″-epi-azithromycin]	active
CC[C@H]1OC(=O)[C@H](C)[C@@H](O[C@H]2C[C@@](C)(OC)[C@@H](O)[C@H](C)O2)[C@H](C)[C@@H](O[C@@H]2O[C@H](C)C[C@H](N(C)C)[C@H]2O)[C@](C)(O)C[C@@H](C)CN(C)[C@H](C)[C@@H](O)[C@]1(C)O [azithromycin, 9-deoxo-9a-aza-9a-methyl-9a-homoerythromycin A]	active
